Laboratory results taken from US20160175313A1, “ENTECAVIR MICROSPHERES AND PHARMACEUTICAL COMPOSITION FOR PARENTERAL ADMINISTRATION CONTAINING SAME” (priority 2013, published 2016).

How the values were obtained:
HBV = conditions: first-time patients, oral preparations, cited from earlier work
[1] = Solubility of entecavir in organic solvent; type: physicochemical
[2] = orally administered; cited from earlier work
rats = system: rats
Experimental: A test was conducted to determine whether local irritation is caused by subcutaneous administration of entecavir into rats.
After entecavir (2.33 mg/kg/day) was subcutaneously injected into 15 male rats per each group, mortality, common symptoms, body weight, autopsy and histopathological evaluation on 1, 4, 5, 8 and 12 weeks were checked to compare with the control group in which excipient was administered.

[3] = rat, in vivo, sc, 2.33 mg/kg/day

C=C1[C@H](CO)[C@@H](O)C[C@@H]1n1cnc2c(=O)[nH]c(N)nc21 [entecavir, Entecavir]
patients HBV-undetectable after 1 year of administration (HBV; 1 year): about 70%
patients HBV-undetectable after 3 years (HBV; 3 years): about 90%
solubility in methylene chloride [1]: insoluble
bioavailability [2]: ~100%
mortality (rats; male rats, 2.33 mg/kg/day subcutaneous, checked up to 12 weeks): no dead animal was observed
local toxicity, overall conclusion (rats; rat, in vivo, sc): did not show harmful local toxicity
abnormal symptoms and abnormal body weight change related to administration (rats; [3]): not observed
autopsy results (rats; [3]): no abnormal finding
inflammation (histopathology) (rats; [3]): inflammation was observed
recovery from inflammation (rats; [3]): all animals recovered from inflammation
injection site microscopy (H&E staining), inflammatory cells (rats; rats, 4 weeks after subcutaneous administration, 2.33 mg/kg/day): some subcutaneous tissue inflammatory cells were observed
